What all share (type): cell-based
In assay [1] the test system is Aeromonas hydrophila. The assay is described as follows: MIC against Gram-negative bacteria: Aeromonas hydrophila. The procedure, abridged: (§1)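 Bacteria grown in LB at 37° C to McFarland 0.5, resuspended and seeded at 5×10^5 CFU/mL in 96-well plates. Purified human EGF-domain proteins two-fold serially diluted, triplicate wells; cultured at 37° C, shaking 175 rpm. MIC = lowest protein concentration with no growth.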

Assay [2] concerns Moraxella catarrhalis. Nature of the assay: MIC against Gram-negative bacteria: Moraxella catarrhalis. An outline of the steps: as §1
Assay [3] deals with Pseudomonas aeruginosa. Nature of the assay: MIC against Gram-negative bacteria: Pseudomonas aeruginosa. An outline of the steps: as §1
For assay [4], the system named is Serratia marcescens. The assay is described as follows: MIC against Gram-negative bacteria: Serratia marcescens. An outline of the steps: as §1
The test system of assay [5] is Klebsiella pneumonia. Nature of the assay: MIC against Gram-negative bacteria: Klebsiella pneumonia. The procedure, abridged:
as §1

The test system of assay [6] is E. coli DH5α. The assay is described as follows: Antibacterial activity: MIC and growth curve against E. coli DH5α in 96-well plate. Particulars: minimal inhibitory concentration against E. coli DH5α; 96-well plate, 5×10^5 CFU/mL, 37° C., judged after 8 h. An outline of the steps:
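Log-phase DH5α (OD600 about 0.5, 37° C, 185 rpm in LB) was pelleted, resuspended in fresh LB and seeded at 5×10^5 CFU/mL with recombinant protein at 50, 25 and 12.5 μg/mL (two-fold series), in triplicate. Plates were shaken at 175 rpm, 37° C, and OD600 was read every 30 min. MIC was the lowest concentration with no growth.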

For assay [7], the system named is Proteus vulgaris. Nature of the assay: MIC against Gram-negative bacteria: Proteus vulgaris. The procedure, abridged: as §1
Assay [8] has as its system Citrobacter diversus. Nature of the assay: MIC against Gram-negative bacteria: Citrobacter diversus. An outline of the steps: as §1
Assay [9] has as its system Enterobacter cloacae. Nature of the assay: MIC against Gram-negative bacteria: Enterobacter cloacae. The procedure, abridged: as §1
In assay [10] the test system is Proteus mirabilis. The assay is described as follows: MIC against Gram-negative bacteria: Proteus mirabilis. An outline of the steps:
as §1

The test system of assay [11] is E. coli BL21. The assay is described as follows: MIC against Gram-negative bacteria: E. coli BL21. An outline of the steps: as §1
Where [12] appears, read: 96-well plate, 5×10^5 CFU/mL, 37° C., 10 h.
Setting [13] is: 10 h cultivation at 37° C., 5×10^5 CFU/mL, two-fold serial dilution.

As to “PRT987 (NVDDCPGHRCLNGGTCVDGVNTYNCQCPPEWTGQFCT; listed as Homo sapiens)”, the MIC (commonly the smallest concentration in the dilution series that meets the test's criterion for growth inhibition) in assay [1] (A. hydrophila, 10 h cultivation at 37° C.) is 12.5 µg/mL; in assay [2] (M. catarrhalis, 10 h cultivation at 37° C.) it was 12.5 µg/mL; in assay [3] (P. aeruginosa, 10 h cultivation at 37° C.) it was 25 µg/mL; in assay [4] (S. marcescens, 10 h cultivation at 37° C.), 50 µg/mL; in assay [5] (K. pneumonia, 10 h cultivation at 37° C.), 50 µg/mL; in assay [6], 25 µg/mL. In addition, the MIC in assay [7] (P. vulgaris, 10 h cultivation at 37° C.) stood at 12.5 µg/mL; in assay [8] (C. diversus, 10 h cultivation at 37° C.), 50 µg/mL; in [9] (E. cloacae, 10 h cultivation at 37° C.), 25 µg/mL; in assay [10] (P. mirabilis, 10 h cultivation at 37° C.), 50 µg/mL; in assay [11] (E. coli BL21, 10 h cultivation at 37° C.) it was 12.5 µg/mL.

Take “PRT154 (DVDECSLAEKTCVRKNENCYNTPGSYVCVCPDGFEETEDACV; listed as Homo sapiens)”: the “MIC (μg/mL) A. hydrophila” value in assay [1] (A. hydrophila, 10 h cultivation at 37° C., 5×10^5 CFU/mL) was 12.5 µg/mL. Besides, the “MIC (μg/mL) M. catarrhalis” value in [2] (M. catarrhalis, 10 h cultivation at 37° C., 5×10^5 CFU/mL) amounted to 50 µg/mL. Besides, the “MIC (μg/mL) P. aeruginosa” value in assay [3] (P. aeruginosa, 10 h cultivation at 37° C., 5×10^5 CFU/mL) was 12.5 µg/mL. For the same substance, in assay [4] (S. marcescens, 10 h cultivation at 37° C., 5×10^5 CFU/mL), the “MIC (μg/mL) S. marcescens” value worked out at 25 µg/mL. The “MIC (μg/mL) K. pneumonia” value in assay [5] (K. pneumonia, 10 h cultivation at 37° C., 5×10^5 CFU/mL) came out at 25 µg/mL. In assay [6], this substance yielded an MIC of 12.5 µg/mL. The “MIC (μg/mL) P. vulgaris” value in assay [7] (P. vulgaris, 10 h cultivation at 37° C., 5×10^5 CFU/mL) turned out to be 12.5 µg/mL. Further, the “MIC (μg/mL) C. diversus” value in assay [8] (C. diversus, 10 h cultivation at 37° C., 5×10^5 CFU/mL) was found to be 25 µg/mL. Further, in [9] (E. cloacae, 10 h cultivation at 37° C., 5×10^5 CFU/mL), the “MIC (μg/mL) E. cloacae” value was found to be 50 µg/mL. Moreover, the “MIC (μg/mL) P. mirabilis” value in [10] (P. mirabilis, 10 h cultivation at 37° C., 5×10^5 CFU/mL) is 25 µg/mL. Further, the “MIC (μg/mL) E. coli BL21” value in assay [11] (E. coli BL21, 10 h cultivation at 37° C., 5×10^5 CFU/mL) stood at 50 µg/mL.

Regarding “PRT685 (DVNECLEGDFCFPHGECLNTDGSFACTCAPGYRPGPRGASCL; listed as Homo sapiens)”, the “MIC A. hydrophila” value in assay [1] (setting [12]) was 50 µg/mL. Also, the “MIC M. catarrhalis” value in [2] (setting [12]) amounted to 50 µg/mL. The “MIC P. aeruginosa” value in assay [3] (setting [12]) turned out to be 12.5 µg/mL. Besides, the “MIC S. marcescens” value in assay [4] (setting [12]) came to 50 µg/mL. In addition, in assay [5] (setting [12]), the “MIC K. pneumonia” value amounted to 50 µg/mL. In assay [6], the MIC turned out to be 50 µg/mL. Besides, the “MIC P. vulgaris” value in assay [7] (setting [12]) was 50 µg/mL. Also, the “MIC C. diversus” value in assay [8] (setting [12]) is 12.5 µg/mL. Moreover, the “MIC E. cloacae” value in assay [9] (setting [12]) came out at 12.5 µg/mL. Besides, the “MIC P. mirabilis” value in assay [10] (setting [12]) amounted to 25 µg/mL. Also, the “MIC E. coli BL21” value in assay [11] (setting [12]) stood at 25 µg/mL.

Turning to “PRT1148 (NINECSSSPCLHGADCEDHINGYVCKCQPGWSGHHCE; listed as Homo sapiens)”, the “MIC A. hydrophila” value in assay [1] (setting [13]) worked out at 12.5 µg/mL. In addition, in assay [2] (setting [13]), the “MIC M. catarrhalis” value stood at 12.5 µg/mL. In addition, the “MIC P. aeruginosa” value in assay [3] (setting [13]) is 12.5 µg/mL. In assay [4] (setting [13]), the “MIC S. marcescens” value turned out to be 12.5 µg/mL. The “MIC K. pneumonia” value in assay [5] (setting [13]) was found to be 25 µg/mL. In assay [6], this substance returned an MIC of 12.5 µg/mL. Moreover, the “MIC P. vulgaris” value in assay [7] (setting [13]) turned out to be 25 µg/mL. For the same substance, the “MIC C. diversus” value in [8] (setting [13]) was found to be 12.5 µg/mL. Further, the “MIC E. cloacae” value in [9] (setting [13]) stood at 12.5 µg/mL. Further, in assay [10] (setting [13]), the “MIC P. mirabilis” value turned out to be 12.5 µg/mL. Also, the “MIC E. coli BL21” value in [11] (setting [13]) amounted to 25 µg/mL.

In the case of “PRT1203 (DIDECAEGRHYCRENTMCVNTPGSFMCICKTGYIRIDDYSCT; listed as Homo sapiens)”, in assay [1] (Aeromonas hydrophila, 96-well plate, 5×10^5 CFU/mL, 37° C., 10 h), the “MIC against A. hydrophila” value was 50 µg/mL. In [2] (Moraxella catarrhalis, 96-well plate, 5×10^5 CFU/mL, 37° C., 10 h), the “MIC against M. catarrhalis” value stood at 50 µg/mL. Besides, the “MIC against P. aeruginosa” value in assay [3] (Pseudomonas aeruginosa, 96-well plate, 5×10^5 CFU/mL, 37° C., 10 h) was 50 µg/mL. In addition, the “MIC against S. marcescens” value in assay [4] (Serratia marcescens, 96-well plate, 5×10^5 CFU/mL, 37° C., 10 h) stood at 50 µg/mL. The “MIC against K. pneumonia” value in assay [5] (Klebsiella pneumonia, 96-well plate, 5×10^5 CFU/mL, 37° C., 10 h) was 25 µg/mL. Moreover, the MIC in assay [6] amounted to 25 µg/mL. Besides, the “MIC against P. vulgaris” value in assay [7] (Proteus vulgaris, 96-well plate, 5×10^5 CFU/mL, 37° C., 10 h) is 25 µg/mL. Besides, in assay [8] (Citrobacter diversus, 96-well plate, 5×10^5 CFU/mL, 37° C., 10 h), the “MIC against C. diversus” value was 12.5 µg/mL. Besides, the “MIC against E. cloacae” value in [9] (Enterobacter cloacae, 96-well plate, 5×10^5 CFU/mL, 37° C., 10 h) stood at 12.5 µg/mL. Also, in assay [10] (Proteus mirabilis, 96-well plate, 5×10^5 CFU/mL, 37° C., 10 h), the “MIC against P. mirabilis” value was 12.5 µg/mL. For the same substance, the “MIC against E. coli BL21” value in [11] (E. coli BL21, 96-well plate, 5×10^5 CFU/mL, 37° C., 10 h) is 12.5 µg/mL.
